In patent US20230241226A1, “COMPOUNDS FOR TARGETED DEGRADATION OF CARRIER PROTEINS AND USES THEREOF” (CeMM - Forschungszentrum für Molekulare Medizin GmbH, priority 2019, published 2023):

Tests used:
[1] = target: T1, SLC9A1 (Homo sapiens, UniProt P19634); experiment: Degradation of endogenous SLC9A1 (immunoblot); type: cell-based
T1 construct: endogenous in cells; host or cells: HAP1, KBM7 (WT and CRBN knockout)
Description: (B) HAP1 and KBM7 cells were treated with different concentrations of d9A1-2.
(C)Both WT and CRBN knockout KBM7 cell lines were treated with 1 µM d9A1-2 for 16 hours.
(D) Chemical “rescue” of d9A1-2 driven degradation. WT KBM7 cell lines were treated with 0.5 µM d9A1-2 for 16 hours. These cells were also treated with bortezomib (bort. 0.25 µM), MG-132 (MG, 1 µM), MLN4924 (MLN,1 µM), pomalidomide (poma., 1 µM), or bafilomycin A1 (bafi., 10 µM). All molecules, apart from bafilomycin, could rescue SLC9A1 from degradation.
(B) HAP1 cells were treated with a dose curve of the warhead, d9A1-1, d9A1-2, d9A1-3, d9A1-4, for 24 hours.
(C) KBM7 cells were treated with varying concentrations of d9A1-2.
HEK293T, LS180 were obtained from ATCC (Manassas, VA, USA), HAP1 WT, HAP1 -/-SLC38A2 (HZGHC001975c003), HAP1 -/-SLC38A9 (HZGHC000777c011) were obtained from Horizon Genomics. Other cell lines utilized here: CAKI (a gift of Georg Winter’s lab), SW620, SW480 (both a gift from Walter Berger’s lab, Medical University Vienna), LOVO, HCT15 (both a gift from Chris Gasche), KBM7 (a gift from Thijn Brummelkamp’s lab), KBM7 -/- CRBN was described in Mayor-Ruiz et al. Cells were cultured, according to the ATCC recommendation in DMEM, RPMI or IMDM medium (Gibco) supplemented with 10% (v/v) FBS and antibiotics (100 U/ml penicillin and […] streptomycin). Knock-in single cell clones of dTAG-HA SLC38A2 HAP1 cell line were generated as previously described. For starvation, culture media was replaced with media without amino acids or FBS.
For immunoblotting, whole cell extracts were prepared using RIPA lysis buffer (25 mM Tris/HCl pH 7.6, 150 mM NaCl, 1% NP-40, 1% sodium deoxycholate, 0.1% SDS, EDTA-free protease inhibitor (Roche) and phosphatase inhibitors 2+3 (Sigma- Aldrich)). Cell extracts were incubated for 15 min on ice in 50 µL RIPA buffer. Lysates were cleared by centrifugation (20,000 g, 10 min, 4° C.). Protein extracts were quantified and normalized using the BCA assay (Thermo Scientific). Where indicated, cleared lysates where treated with the enzyme PNGase (NEB) to deglycosylate the proteins. Lämmli Sample Buffer 4x was added to protein extract samples without boiling. Cell lysates were run on SDS-polyacrylamide gel in tris-glycine running buffer and transferred to nitrocellulose membranes Amersham Protran 0.45 µm (GE Healthcare), according to standard methods. The membranes were incubated with the antibodies indicated below and visualized with horseradish peroxidase-conjugated secondary antibodies (described below) using the ECL Western blotting system (Thermo Scientific). The following antibodies were used: GAPDH (Santa Cruz, sc-365062), Actin (Cyoskeleton Inc., #AAN01), HA (Covance, cat #MMS-101R), HA (Cell Signaling, #3724), HA7-HRP (Sigma, H6533), HA (Roche, #11867423001), SLC9A1 (Santa Cruz, sc-136239), SLC2A1 (Cell Signaling, #12939), SLC38A1 (Cell Signaling, #36057). Secondary antibody for imaging goat anti-Rat IgG Alexa Fluor 488 (ThermoFisher, A11006). The following secondary antibodies were used for immunoblotting: goat anti-mouse HRP (115-035-003, Jackson ImmunoResearch) and goat anti-rabbit HRP (111-035-003, Jackson ImmunoResearch).
MG132, Bortezomib, Pomalidomide were obtained from Selleckchem. MLN4924 was obtained from MedchemExpress. Bafilomycin was obtained from Enzo Life Sciences. dTAG13 was a generous gift from the Nathanael Gray laboratory, Dana Farber Cancer Institute. The d9A1 degrader series (warhead, d9A1-1 to d9A1-4) was synthesized by Wuxi AppTec. All chemicals were dissolved in DMSO (Sigma-Aldrich) and utilized at the concertation described in respective figures.

[2] = target: T2, Strep/HA SLC9A9 (Homo sapiens, UniProt Q8IVB4); experiment: Selectivity across SLC9 family: degradation of exogenous Strep/HA SLC9A9; type: cell-based; conditions: HAP1; 250 or 750 nM; 16 hours
T2 construct: expressed in transfected cells; host or cells: HAP1 (lentiviral, pRRL Strep-HA)
T2 sequence (Q8IVB4 whole entry): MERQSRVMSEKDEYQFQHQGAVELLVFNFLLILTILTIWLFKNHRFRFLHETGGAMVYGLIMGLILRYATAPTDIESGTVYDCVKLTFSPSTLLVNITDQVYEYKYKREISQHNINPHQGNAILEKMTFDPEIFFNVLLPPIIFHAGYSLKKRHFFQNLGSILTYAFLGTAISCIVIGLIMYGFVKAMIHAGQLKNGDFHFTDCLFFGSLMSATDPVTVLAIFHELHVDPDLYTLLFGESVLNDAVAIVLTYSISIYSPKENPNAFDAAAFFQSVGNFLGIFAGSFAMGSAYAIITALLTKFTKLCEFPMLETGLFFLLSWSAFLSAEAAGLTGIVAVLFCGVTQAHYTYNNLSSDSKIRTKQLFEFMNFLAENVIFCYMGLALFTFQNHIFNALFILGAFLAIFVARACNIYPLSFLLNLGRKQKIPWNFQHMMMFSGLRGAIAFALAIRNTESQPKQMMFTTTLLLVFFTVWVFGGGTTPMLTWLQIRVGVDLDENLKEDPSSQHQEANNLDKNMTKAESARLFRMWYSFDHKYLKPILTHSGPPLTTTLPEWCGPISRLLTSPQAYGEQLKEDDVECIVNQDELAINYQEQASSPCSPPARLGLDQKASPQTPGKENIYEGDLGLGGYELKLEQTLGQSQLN
Description: (E) Selectivity of d9A1-2 was tested across HAP1 cell lines expressing Strep/HASLC9A1, 9A4, 9A5, 9A8, 9A2, 9B2, 9A6, 9A9, and 9A3. Cells were treated with varying concentrations of d9A1-2 for 16 hours, after which degradation of the exogenous SLCs was monitored.
SLC1A5, SLC2A1, SLC2A3, SLC16A1, SLC38A1, SLC38A2 were obtained as gateway-compatible pENTR/pDONR vectors from the Harvard PlasmID Repository. SLC39A7 was obtained from Dharmacon, GE Healthcare. The following vectors were synthesized by Genescript: SLC4A4, SLC7A3, SLC38A9, SLC25A1, SLC9A1, SLC9A2, SLC9A3, SLC9A4, SLC9A5, SLC9A6, SLC9A7, SLC9A8, and SLC9B2. SLC30A9, SLC33A1, SLC35B2, SLC25A26, and MTCH2 were a gift from the RESOLUTE consortium. cDNAs were transferred into gateway-compatible lentiviral expression vectors: pLX305 dTAG vectors (Addgene #91797/8) or pRRL Strep-HA (described previously43, EF1a promotor driven expression) using LR recombination (ThermoFisher Scientific). […]
For immunoblotting, whole cell extracts were prepared using RIPA lysis buffer (25 mM Tris/HCl pH 7.6, 150 mM NaCl, 1% NP-40, 1% sodium deoxycholate, 0.1% SDS, EDTA-free protease inhibitor (Roche) and phosphatase inhibitors 2+3 (Sigma- Aldrich)). […] Protein extracts were quantified and normalized using the BCA assay (Thermo Scientific). […]

T1 sequence (P19634 whole entry): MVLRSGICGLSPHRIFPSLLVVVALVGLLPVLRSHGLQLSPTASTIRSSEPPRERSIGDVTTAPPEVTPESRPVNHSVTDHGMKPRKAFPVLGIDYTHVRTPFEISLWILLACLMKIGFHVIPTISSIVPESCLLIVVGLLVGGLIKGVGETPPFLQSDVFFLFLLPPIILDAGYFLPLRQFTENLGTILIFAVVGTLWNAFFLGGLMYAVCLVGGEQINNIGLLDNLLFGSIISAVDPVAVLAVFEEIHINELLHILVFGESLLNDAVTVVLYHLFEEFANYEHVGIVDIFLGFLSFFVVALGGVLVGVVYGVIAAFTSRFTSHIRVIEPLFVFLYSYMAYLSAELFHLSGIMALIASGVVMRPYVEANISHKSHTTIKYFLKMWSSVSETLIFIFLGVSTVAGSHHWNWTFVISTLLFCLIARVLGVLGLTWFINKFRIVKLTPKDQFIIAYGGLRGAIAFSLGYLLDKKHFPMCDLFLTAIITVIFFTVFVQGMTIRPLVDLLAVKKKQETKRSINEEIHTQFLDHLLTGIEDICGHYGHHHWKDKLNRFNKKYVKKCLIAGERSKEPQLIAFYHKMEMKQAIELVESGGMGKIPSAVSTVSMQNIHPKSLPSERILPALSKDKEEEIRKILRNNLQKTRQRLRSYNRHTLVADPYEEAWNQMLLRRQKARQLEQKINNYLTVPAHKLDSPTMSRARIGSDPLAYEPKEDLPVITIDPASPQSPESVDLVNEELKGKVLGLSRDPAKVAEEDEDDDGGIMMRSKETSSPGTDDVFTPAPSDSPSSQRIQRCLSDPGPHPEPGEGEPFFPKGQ

## Cc1cc(-c2ccc(C(=O)NCCOCCOCCOCCOCCNc3cccc4c3C(=O)N(C3CCC(=O)NC3=O)C4=O)cc2N2CCC(c3[nH]cnc3C)CC2)ccc1F (stereo not drawn) [d9A1-2]
[1]; HAP1 and KBM7 cells
  degradation of endogenous SLC9A1: degradation of endogenous SLC9A1 at sub-micromolar concentration
[1]; HAP1 and KBM7 cells, different concentrations
  time within which degradation of SLC9A1 was observed: ≤ 8 h
[1]; HAP1 cells, 24 hours
  SLC9A1 degradation, dose curve: most effective
[1]; KBM7 WT and CRBN knockout, 1 µM, 16 hours
  SLC9A1 degradation in WT and CRBN knockout cells: observed in WT but not CRBN knockout
[1]; KBM7 cells, varying concentrations, 5, 7, 9 or 12 hours
  SLC9A1 expression, time course: Reduction of SLC9A1 expression was observed
[2]
  abundance of exogenous SLC9A9: not significantly affected
